Data on three compounds can be found in US20260085101A1, “NOVEL PLATELET DERIVED GROWTH FACTOR PEPTIDE MIMETIC” (THE UNIVERSITY OF SYDNEY, priority 2022, published 2026).

For one assay, the system named is C57BL6/J mice. In words: Murine model of acute myocardial infarction (permanent LAD occlusion), echocardiography and heart weight/tibia length. The conditions noted are these: for average day 2 to day 28 Δ ejection fraction: change from day 2 to day 28; for day 28 ejection fraction / decrease in ESV versus PBS (MI) cohort (mean diff.) / mean heart weight/tibia length / mean end systolic volume (ESV) at day 28 / mean end diastolic volume (EDV) at day 28: mice; for day 28 ejection fraction: 28 days post MI, 60 μg/kg PDGF−AB or 32.50 mg/kg peptide via implanted minipump, mean (±SD), PBS 26.89%; for decrease in ESV versus PBS (MI) cohort (mean diff.) / mean heart weight/tibia length / mean end systolic volume (ESV) at day 28 / mean end diastolic volume (EDV) at day 28: day 28 post MI; for mean heart weight/tibia length: PBS 0.01913; for mean end systolic volume (ESV) at day 28 / mean end diastolic volume (EDV) at day 28: minipump; for mean end systolic volume (ESV) at day 28: PBS 116.6 μL; for mean end diastolic volume (EDV) at day 28: PBS 155.9 μL. The class given is in vivo, mouse. From the text: FIG. 9: Improved Cardiac function at Day 28 Post Myocardial Infarction. […] C) A decrease in end diastolic volumes was also observed in PDGF−AB (p=0.0016) and JC5 (p=0.0185) treated mice versus PBS. […] E) Timeline of mean EF per treatment group. Baseline indicates the pre-infarct EF per group. Day 2 and day 28 indicates days post infarct. A-C) Error bars represent ±SD. D) Data presented as median ±minimum and maximum values. One way ANOVA comparing all groups to the PBS vehicle control group (n=10/11).
FIG. 11: Decreased Heart Weight/Tibia Length in Mice Treated with JC5. […] Error bars represent ±SD.
Cardiac function was monitored using echocardiography with a post MI baseline at day 2 and a day 28 end point followed by tissue collection and calculation of heart weight divided by tibia length. Mice were randomised into treatment groups receiving either 60 μg/kg of the positive control recombinant human PDGF−AB, 32.50 mg/kg of novel mimetic peptide JC5, 32.50 mg/kg of novel mimetic peptide JC5a, or phosphate buffered saline (PBS) as a vehicle control, via implanted minipump, at the time of infarction. In addition to this sham controls were included using non-infarcted healthy mice receiving either 32.50 mg/kg of novel mimetic peptide JC5 or 32.50 mg/kg of novel mimetic peptide JC5a.
Left ventricular ejection fraction (LVEF) is directly proportionate to the difference between left ventricle end diastolic volume and the left ventricular end systolic volume (LVEDV-LVESV) and inversely proportionate to left ventricular end diastolic volume (LVEDV). The value is created by the following equation LVEF=(LVEDV-LVESV)/LVEDV. Increased end diastolic volume (EDV) indicates possible dilation of the ventricle whilst increased end systolic volume (ESV) indicates a possible decrease in contractile function. In mice treated with positive control PDGF−AB (MI) and novel mimetic peptide JC5 (MI) there was a significant decrease in both ESV and EDV at day 28 when compared to the vehicle control, PBS (MI), cohort. The decreased ESV of the PDGF−AB (MI) cohort at day 28 aligned with what was expected of the positive control with a mean ESV of 55.04 μL (±23.66), […] (mean diff.) less than the PBS (MI) cohort (p=0.0003). […] These were both a significant decrease from the PBS (MI) cohort with a mean EDV of 155.9 μL (±47.15) (JC5 p=0.0185, PDGF−AB p=0.0016).

The subject of assay [1] is C3H10T½ mouse embryonic fibroblasts. Put plainly: EdU proliferation assay (flow cytometry). It is filed as cell-based. The conditions noted are these: C3H10T½ cells, 1% FBS; for stimulation of proliferation relative to 1% FBS: 24 hr, 20 ng/ml PDGF, 2 μg/ml peptides; for stimulation of the PDGF ligand/receptor pathway inferred from inhibition of EdU levels by AG1296 cotreatment: cotreatment with 10 μM AG1296. The protocol: FIG. 8. Proliferation of C3H10T½ Cells Following Treatment with PDGF and Novel PDGF Mimetic Peptides. Cultured C3H10T½ mouse embryonic fibroblast cells were treated with 20 ng/ml recombinant PDGF−AB or PDGF−BB protein ligands, and 2 μg/ml of novel PDGF mimetics JC5 or JC5a for 24 hr, in the presence of 1% fetal bovine serum (FBS). Percent proliferating cell was determined after a 2 hr pulse with nucleotide analogue EdU at the end of the incubation period. […] Co-treatment of protein/peptides with 10 μM of PDGF receptor antagonist, AG1296, confirmed that PDGF-BB-stimulated proliferation occurred via the PDGF ligand/receptor pathway. […] Error bars represent ±SD, n=3. Statistical analysis was using One-Way Anova: * p<0.05; ** p<0.01; *** p<0.001; **** p<0.0001. The mitotic effects of PDGF mimetic peptides JC5 and JC5a were tested using cultured C3H10T½ mouse embryonic fibroblasts. Proliferation was assayed after a pulse of nucleotide analogue 5-ethynyl-2′-deoxyuridine (EdU) and fluorescent detection using flow cytometry. Cells were treated with 20 ng/ml PDGF−BB or PDGF−AB, and 2 μg/ml of peptides JC5 or JC5a, in the presence of 1% fetal bovine serum (FBS) and DMEM for 24 hr. 10% FBS was used as a positive control, and co-treatments with specific PDGF receptor antagonist, AG1296, was used to ascertain whether proliferation occurred via the PDGF ligand/receptor pathway. Assays were performed in biological triplicate.

The next assay addresses T1, PDGF receptor (Mus musculus, UniProt P05622).
T1 construct: Phosphorylation of ERK following treatment of C2C12 Cells with PDGF and JC5; endogenous in cells; host or cells: C2C12 mouse myoblasts
Put plainly: Western blot for phosphorylation of ERK in C2C12 cells (PDGF receptor activation). It is filed as cell-based. The conditions noted are these: for phosphorylation of ERK (pERK): 10 ng/ml PDGF, 1 μg/ml peptide, vs no treatment and AG1296+PDGF−AB controls. As for the experimental part: FIG. 5. Phosphorylation of ERK following treatment of C2C12 Cells with PDGF and JC5. Western blots for total (ERK) and phosphorylated ERK (pERK) at 42 and 44 kDa show an increase in phosphorylation following treatment with 10 ng/ml PDGF−BB and 1 μg/ml of JC5. FIG. 6. Phosphorylation of ERK following treatment of C2C12 Cells with PDGF and JC5a. Western blots for total (ERK) and phosphorylated ERK (pERK) at 42 and 44 kDa show an increase in phosphorylation 10 minutes post treatment with 10 ng/ml PDGF−BB and 1 μg/ml of novel mimetic peptide JC5a. JC5a maintained this increased phosphorylation of ERK at 30 minutes post treatment. PDGF receptor activation takes place via autophosphorylation of tyrosine […] residues at key sites throughout the intracellular domain. Autophosphorylation engages different signaling pathways, including ERK (MAPK) which participates in proliferation, cell survival, angiogenesis, and chemotactic activity of cells. Phosphorylation of ERK indicates successful activation of the PDGF receptor.

T1 sequence (P05622 32-1098): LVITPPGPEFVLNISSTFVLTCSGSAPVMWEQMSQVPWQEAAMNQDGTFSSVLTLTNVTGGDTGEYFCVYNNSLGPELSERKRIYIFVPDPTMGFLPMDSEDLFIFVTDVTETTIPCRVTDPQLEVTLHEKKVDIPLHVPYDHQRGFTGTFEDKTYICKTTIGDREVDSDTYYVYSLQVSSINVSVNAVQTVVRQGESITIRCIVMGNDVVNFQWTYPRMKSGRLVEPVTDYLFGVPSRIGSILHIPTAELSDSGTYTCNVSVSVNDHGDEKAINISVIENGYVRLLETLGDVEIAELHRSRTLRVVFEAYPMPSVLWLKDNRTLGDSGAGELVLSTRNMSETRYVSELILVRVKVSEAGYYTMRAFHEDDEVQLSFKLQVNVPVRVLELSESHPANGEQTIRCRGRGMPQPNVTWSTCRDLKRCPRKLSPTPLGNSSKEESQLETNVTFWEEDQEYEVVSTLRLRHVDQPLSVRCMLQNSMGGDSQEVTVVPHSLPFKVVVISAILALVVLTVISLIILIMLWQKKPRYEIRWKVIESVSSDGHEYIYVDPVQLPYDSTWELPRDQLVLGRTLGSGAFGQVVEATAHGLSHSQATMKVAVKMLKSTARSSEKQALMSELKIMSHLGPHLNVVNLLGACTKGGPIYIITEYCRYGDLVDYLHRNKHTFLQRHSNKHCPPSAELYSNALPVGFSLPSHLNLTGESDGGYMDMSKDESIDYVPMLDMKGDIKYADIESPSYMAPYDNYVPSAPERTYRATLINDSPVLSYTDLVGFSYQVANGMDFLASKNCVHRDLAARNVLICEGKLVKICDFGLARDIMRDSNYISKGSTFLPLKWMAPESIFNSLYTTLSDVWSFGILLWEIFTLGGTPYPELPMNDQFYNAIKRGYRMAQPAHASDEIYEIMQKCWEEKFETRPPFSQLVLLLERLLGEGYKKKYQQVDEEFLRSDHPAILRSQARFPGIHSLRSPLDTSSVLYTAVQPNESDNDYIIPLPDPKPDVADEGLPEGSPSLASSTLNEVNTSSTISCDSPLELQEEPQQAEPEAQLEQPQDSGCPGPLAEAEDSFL

Take `CCCCCCCCCCCCCCCC(=O)NCCCC[C@H](NC(=O)[C@H](CCC(=O)O)NC(=O)[C@H](Cc1ccc(O)cc1)NC(=O)[C@@H](CCC(=O)O)NC(=O)CCOCCOCCOCCNC(=O)CCOCCOCCOCCNC(=O)[C@@H](CCCCN)NC(=O)[C@@H](CCCCN)NC(=O)[C@@H](CCCNC(=N)N)NC(=O)[C@@H](NC(=O)[C@@H](NC(=O)[C@H](CCC(=O)O)NC(=O)[C@@H](NC(=O)[C@H](CCCCN)NC(=O)[C@@H](CCCNC(=N)N)NC(=O)[C@H](NC(=O)[C@H](N)CSSC[C@@H](N)C(=O)N[C@@H](C(=O)N[C@H](CCCNC(=N)N)C(=O)N[C@@H](CCCCN)C(=O)N[C@H](C(=O)N[C@@H](CCC(=O)O)C(=O)N[C@H](C(=O)N[C@H](C(=O)N[C@H](CCCNC(=N)N)C(=O)N[C@H](CCCCN)C(=O)N[C@H](CCCCN)C(=O)NCCOCCOCCOCCC(=O)NCCOCCOCCOCCC(=O)N[C@H](CCC(=O)O)C(=O)N[C@@H](Cc1ccc(O)cc1)C(=O)N[C@@H](CCC(=O)O)C(=O)N[C@@H](CCCCNC(=O)CCCCCCCCCCCCCCC)C(=O)N[C@@H](CCC(=O)O)C(=O)N[C@@H](Cc1ccc(O)cc1)C(=O)N[C@@H](CCC(=O)O)C(N)=O)C(C)C)[C@H](C)CC)[C@@H](C)CC)C(C)C)C(C)C)[C@@H](C)CC)[C@H](C)CC)C(C)C)C(=O)N[C@@H](CCC(=O)O)C(=O)N[C@@H](Cc1ccc(O)cc1)C(=O)N[C@@H](CCC(=O)O)C(N)=O` [JC5a, PDGF Loop III dimer USA dimer (CVRKIEIVRKK)2(Peg3)2(EYEK(Palm)EYE)2-C′]: the “average day 2 to day 28 Δ ejection fraction” value in the assay on C57BL6/J mice (mice post MI) amounted to 10.82%. Further, in the assay with C57BL6/J mice (mice post MI, vs PBS vehicle control), the “day 2 to day 28 change in ejection fraction greater than PBS (MI) (mean diff.)” value is recorded as 18.02%. The “day 28 ejection fraction” value in the assay on C57BL6/J mice was 39.24%. Further, the “stimulation of proliferation relative to 1% FBS” value in assay [1] is given as “did not significantly stimulate proliferation”. Also, at PDGF receptor, the “phosphorylation of ERK (pERK)” value is recorded as “phosphorylation of ERK (pERK) can be seen”. Moreover, on PDGF receptor (1 μg/ml JC5a, 30 minutes), the “phosphorylation of ERK (pERK) at 30 minutes post treatment” value was “preserved phosphorylation of ERK (pERK)”.
As for “PDGF Loop III dimer HSA (CVRKIEIVRKK)2(Peg3)2EYEK(Palm)EYE-C′ [JC5]”, the “average day 2 to day 28 Δ ejection fraction” value with C57BL6/J mice (mice post MI) amounted to 6.686%. In the assay with C57BL6/J mice, the “day 28 ejection fraction” value is reported as 42.06%, the “decrease in ESV versus PBS (MI) cohort (mean diff.)” value came out at 49.58 µL, the “mean heart weight/tibia length” value is 0.01462 and the “mean end systolic volume (ESV) at day 28” value worked out at 67.01 µL. Besides, the “mean end diastolic volume (EDV) at day 28” value with C57BL6/J mice was 108.6 µL. In assay [1], the “stimulation of the PDGF ligand/receptor pathway inferred from inhibition of EdU levels by AG1296 cotreatment” value is “weak stimulation of the PDGF ligand/receptor pathway” and the “stimulation of proliferation relative to 1% FBS” value is reported as “did not significantly stimulate proliferation”. The “phosphorylation of ERK (pERK)” value at PDGF receptor is reported as “phosphorylation of ERK (pERK) can be seen”.
Take “PDGF−AB: recombinant human PDGF−AB, AB heterodimer of recombinant PDGF, positive control”: in the assay with C57BL6/J mice (mice post MI), the “average day 2 to day 28 Δ ejection fraction” value was determined as 7.104%. Further, in the assay with C57BL6/J mice, the “day 28 ejection fraction” value worked out at 43.44%, the “decrease in ESV versus PBS (MI) cohort (mean diff.)” value stood at 61.54 µL, the “mean heart weight/tibia length” value is 0.01344 and the “mean end systolic volume (ESV) at day 28” value was 55.04 µL. Further, the “mean end diastolic volume (EDV) at day 28” value in the assay with C57BL6/J mice worked out at 93.75 µL. In assay [1], the “stimulation of the PDGF ligand/receptor pathway inferred from inhibition of EdU levels by AG1296 cotreatment” value is “weak stimulation of the PDGF ligand/receptor pathway” and the “stimulation of proliferation relative to 1% FBS” value is on record as “did not significantly stimulate proliferation”. Also, in the assay with PDGF receptor, the “phosphorylation of ERK (pERK)” value is given as “pERK is induced by PDGF−BB but not PDGF−AB”.
